Test results published in ChEMBL document CHEMBL6182845, “Synthesis, screening and validation of cysteine-reactive fragments as chikungunya virus protease inhibitors” (Bioorg Med Chem Lett, 2025).
Active and inactive are the calls of the source. No cut-off for these calls is given here.

Columns and labels:
[1] = target: Polyprotein P1234 (Chikungunya virus (strain S27-African prototype) (CHIKV)) (UniProt Q8JUX6); experiment: Inhibition of CHIKV nsP2 protease at 1 mM by FRET assay relative to control
[2] = target: Polyprotein P1234 (Chikungunya virus (strain S27-African prototype) (CHIKV)) (UniProt Q8JUX6); experiment: Reversible binding affinity to CHIKV nsP2 protease at 10 uM preincubated with compound followed by 100 fold dilution and subsequent addition of substrate by jump-dilution assay
[3] = target: Replicase polyprotein 1ab (Severe acute respiratory syndrome coronavirus 2) (UniProt P0DTD1); experiment: Inhibition of SARS-CoV-2 PLpro at 1 mM by FRET analysis
[4] = target: Polyprotein P1234 (Sindbis virus) (UniProt P03317); experiment: Inhibition of SINV nsP2pro at 1 mM by FRET analysis
Polyprotein P1234 = Polyprotein P1234 (Chikungunya virus (strain S27-African prototype) (CHIKV), UniProt Q8JUX6); experiment: Inhibition of CHIKV nsP2 protease by FRET assay
[5] = target: Polyprotein P1234 (Chikungunya virus (strain S27-African prototype) (CHIKV)) (UniProt Q8JUX6); experiment: Irreversible binding affinity to CHIKV nsP2 protease at 10 uM preincubated with compound followed by 100 fold dilution and subsequent addition of substrate by jump-dilution assay
[6] = target: Polyprotein P1234 (Chikungunya virus (strain S27-African prototype) (CHIKV)) (UniProt Q8JUX6); experiment: Binding affinity to CHIKV nsP2 protease assessed as covalent modification by mass spectrometry

Sequence of Polyprotein P1234 (Chikungunya virus (strain S27-African prototype) (CHIKV)) (Q8JUX6 whole entry): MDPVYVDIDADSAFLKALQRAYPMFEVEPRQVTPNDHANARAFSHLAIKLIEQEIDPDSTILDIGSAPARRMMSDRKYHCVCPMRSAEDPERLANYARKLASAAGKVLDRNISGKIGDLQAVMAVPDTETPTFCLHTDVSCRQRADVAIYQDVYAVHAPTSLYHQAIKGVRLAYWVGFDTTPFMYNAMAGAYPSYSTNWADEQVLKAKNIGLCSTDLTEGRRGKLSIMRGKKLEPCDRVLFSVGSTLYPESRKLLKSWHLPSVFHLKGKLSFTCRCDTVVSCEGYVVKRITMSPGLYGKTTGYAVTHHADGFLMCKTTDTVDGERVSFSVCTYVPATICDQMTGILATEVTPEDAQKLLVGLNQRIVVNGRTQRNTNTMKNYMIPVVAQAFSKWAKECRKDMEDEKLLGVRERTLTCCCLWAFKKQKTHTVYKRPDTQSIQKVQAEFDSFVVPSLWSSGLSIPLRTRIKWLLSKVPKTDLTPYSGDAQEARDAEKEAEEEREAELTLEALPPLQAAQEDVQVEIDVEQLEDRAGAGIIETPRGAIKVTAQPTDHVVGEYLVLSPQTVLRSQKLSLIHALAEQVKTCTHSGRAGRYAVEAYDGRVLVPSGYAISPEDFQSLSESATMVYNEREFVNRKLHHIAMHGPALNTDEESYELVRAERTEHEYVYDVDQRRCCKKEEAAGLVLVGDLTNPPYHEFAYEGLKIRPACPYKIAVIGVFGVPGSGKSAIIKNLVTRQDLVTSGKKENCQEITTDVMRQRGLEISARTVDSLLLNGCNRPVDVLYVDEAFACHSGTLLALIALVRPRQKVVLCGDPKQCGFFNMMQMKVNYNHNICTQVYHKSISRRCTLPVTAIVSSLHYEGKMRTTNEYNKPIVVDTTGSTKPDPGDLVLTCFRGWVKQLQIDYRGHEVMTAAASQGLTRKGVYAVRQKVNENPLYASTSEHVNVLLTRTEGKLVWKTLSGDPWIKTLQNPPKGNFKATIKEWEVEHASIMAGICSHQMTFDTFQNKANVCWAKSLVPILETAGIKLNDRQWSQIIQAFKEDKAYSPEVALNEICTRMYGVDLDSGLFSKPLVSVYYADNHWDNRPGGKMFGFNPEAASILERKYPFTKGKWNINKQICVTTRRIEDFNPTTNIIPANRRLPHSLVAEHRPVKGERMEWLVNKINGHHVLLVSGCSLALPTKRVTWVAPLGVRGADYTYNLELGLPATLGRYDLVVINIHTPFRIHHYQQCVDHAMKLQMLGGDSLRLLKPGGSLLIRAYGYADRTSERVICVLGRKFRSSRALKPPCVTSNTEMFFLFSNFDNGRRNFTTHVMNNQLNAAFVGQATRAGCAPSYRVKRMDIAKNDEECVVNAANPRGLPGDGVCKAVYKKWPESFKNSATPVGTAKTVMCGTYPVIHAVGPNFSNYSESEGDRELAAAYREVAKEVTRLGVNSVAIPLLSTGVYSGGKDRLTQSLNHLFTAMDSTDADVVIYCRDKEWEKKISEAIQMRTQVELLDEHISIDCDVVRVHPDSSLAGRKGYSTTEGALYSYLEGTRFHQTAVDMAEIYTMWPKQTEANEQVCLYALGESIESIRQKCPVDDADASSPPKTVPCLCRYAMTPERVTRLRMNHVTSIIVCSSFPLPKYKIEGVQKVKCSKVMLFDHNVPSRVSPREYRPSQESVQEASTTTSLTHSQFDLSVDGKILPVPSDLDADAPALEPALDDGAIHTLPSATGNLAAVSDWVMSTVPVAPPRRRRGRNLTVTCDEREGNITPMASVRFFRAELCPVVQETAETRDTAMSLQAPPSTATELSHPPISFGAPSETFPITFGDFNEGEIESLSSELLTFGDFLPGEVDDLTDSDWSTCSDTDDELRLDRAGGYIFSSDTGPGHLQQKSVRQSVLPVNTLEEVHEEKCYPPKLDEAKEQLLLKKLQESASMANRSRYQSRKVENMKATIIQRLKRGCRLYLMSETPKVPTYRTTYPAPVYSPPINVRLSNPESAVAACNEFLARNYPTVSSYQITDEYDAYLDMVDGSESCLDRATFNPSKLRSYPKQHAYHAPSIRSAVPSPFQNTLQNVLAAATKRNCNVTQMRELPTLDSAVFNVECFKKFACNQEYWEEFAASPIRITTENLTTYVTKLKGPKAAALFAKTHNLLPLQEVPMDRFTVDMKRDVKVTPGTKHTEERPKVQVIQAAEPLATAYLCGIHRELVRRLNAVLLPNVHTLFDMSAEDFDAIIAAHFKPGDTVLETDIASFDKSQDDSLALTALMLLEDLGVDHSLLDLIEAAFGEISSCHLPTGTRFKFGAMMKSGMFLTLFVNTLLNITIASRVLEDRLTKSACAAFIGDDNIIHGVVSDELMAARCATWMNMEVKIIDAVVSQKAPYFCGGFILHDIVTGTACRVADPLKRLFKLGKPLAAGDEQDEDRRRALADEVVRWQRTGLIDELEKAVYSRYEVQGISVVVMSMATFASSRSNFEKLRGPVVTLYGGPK
Sequence of Polyprotein P1234 (Sindbis virus) (P03317 whole entry): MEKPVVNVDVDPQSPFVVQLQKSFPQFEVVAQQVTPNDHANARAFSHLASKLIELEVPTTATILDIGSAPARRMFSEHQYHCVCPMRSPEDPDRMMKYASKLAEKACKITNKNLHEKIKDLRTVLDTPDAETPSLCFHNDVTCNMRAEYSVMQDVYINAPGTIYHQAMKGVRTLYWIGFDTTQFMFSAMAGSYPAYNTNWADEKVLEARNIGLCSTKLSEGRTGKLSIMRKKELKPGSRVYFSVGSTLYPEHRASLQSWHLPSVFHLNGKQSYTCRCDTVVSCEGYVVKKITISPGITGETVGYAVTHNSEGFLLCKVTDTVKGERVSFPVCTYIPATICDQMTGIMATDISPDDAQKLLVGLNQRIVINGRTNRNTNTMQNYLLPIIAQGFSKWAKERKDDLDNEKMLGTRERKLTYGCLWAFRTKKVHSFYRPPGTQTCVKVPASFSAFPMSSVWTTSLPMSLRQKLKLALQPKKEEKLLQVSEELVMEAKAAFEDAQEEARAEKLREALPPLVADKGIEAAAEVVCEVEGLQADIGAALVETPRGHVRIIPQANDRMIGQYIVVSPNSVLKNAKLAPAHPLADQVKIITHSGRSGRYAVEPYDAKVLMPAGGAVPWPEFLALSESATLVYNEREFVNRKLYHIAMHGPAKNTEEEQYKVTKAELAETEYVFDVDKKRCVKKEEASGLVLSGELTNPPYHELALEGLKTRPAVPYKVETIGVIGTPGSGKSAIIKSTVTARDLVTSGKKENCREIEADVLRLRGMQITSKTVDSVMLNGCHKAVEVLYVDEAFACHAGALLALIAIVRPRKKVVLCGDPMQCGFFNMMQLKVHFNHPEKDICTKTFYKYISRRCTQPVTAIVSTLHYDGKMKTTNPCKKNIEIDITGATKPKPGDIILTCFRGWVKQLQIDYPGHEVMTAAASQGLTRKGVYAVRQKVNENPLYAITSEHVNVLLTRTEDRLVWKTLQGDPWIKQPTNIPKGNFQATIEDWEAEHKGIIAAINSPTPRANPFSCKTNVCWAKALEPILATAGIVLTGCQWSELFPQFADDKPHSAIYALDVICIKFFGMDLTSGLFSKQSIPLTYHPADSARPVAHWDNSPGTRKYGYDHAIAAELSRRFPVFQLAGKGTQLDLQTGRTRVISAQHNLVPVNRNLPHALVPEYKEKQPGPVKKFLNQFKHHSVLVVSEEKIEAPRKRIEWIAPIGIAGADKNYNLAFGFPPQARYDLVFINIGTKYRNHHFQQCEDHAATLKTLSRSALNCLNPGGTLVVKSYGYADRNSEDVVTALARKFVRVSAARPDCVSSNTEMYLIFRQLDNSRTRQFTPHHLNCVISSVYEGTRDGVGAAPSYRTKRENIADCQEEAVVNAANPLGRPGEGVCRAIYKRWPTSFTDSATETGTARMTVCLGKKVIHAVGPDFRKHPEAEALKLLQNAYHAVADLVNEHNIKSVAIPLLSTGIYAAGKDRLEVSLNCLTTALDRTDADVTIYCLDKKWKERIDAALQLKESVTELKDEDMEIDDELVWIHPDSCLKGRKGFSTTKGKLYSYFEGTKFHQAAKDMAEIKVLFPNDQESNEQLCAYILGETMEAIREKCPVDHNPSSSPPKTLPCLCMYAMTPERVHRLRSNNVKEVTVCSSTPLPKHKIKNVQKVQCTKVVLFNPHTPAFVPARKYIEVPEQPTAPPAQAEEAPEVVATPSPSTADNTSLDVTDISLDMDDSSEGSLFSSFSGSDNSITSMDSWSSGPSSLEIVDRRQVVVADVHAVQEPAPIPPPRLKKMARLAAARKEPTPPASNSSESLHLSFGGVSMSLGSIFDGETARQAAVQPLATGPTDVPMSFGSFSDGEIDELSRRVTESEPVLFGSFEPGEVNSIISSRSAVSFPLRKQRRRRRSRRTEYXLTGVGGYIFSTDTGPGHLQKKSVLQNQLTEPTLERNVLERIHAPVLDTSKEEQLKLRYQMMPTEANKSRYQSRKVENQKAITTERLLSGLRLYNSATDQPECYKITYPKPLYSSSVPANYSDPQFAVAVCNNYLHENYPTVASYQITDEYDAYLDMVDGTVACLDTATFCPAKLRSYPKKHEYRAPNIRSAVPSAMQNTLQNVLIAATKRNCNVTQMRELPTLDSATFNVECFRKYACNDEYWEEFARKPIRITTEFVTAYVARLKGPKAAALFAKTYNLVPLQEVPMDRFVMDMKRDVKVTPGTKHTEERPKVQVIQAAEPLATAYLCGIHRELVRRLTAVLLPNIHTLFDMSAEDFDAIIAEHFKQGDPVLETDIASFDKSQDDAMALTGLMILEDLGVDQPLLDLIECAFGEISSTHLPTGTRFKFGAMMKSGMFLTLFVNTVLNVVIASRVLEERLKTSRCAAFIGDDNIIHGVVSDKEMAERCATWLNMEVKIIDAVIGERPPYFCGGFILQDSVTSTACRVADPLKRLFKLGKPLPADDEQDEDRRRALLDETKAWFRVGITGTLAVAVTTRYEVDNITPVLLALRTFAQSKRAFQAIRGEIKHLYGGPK

Row | SMILES | inhibition [1] [%] | other results
1 | C=CC(=O)Nc1ccccc1 | < 40 | –
2 | C=CC(=O)Nc1ccc(OC)cc1 | < 40 | –
3 | C=CC(=O)NCCc1ccc(O)cc1 | < 40 | –
4 | C=CC(=O)N[C@@H]1CCCC[C@H]1NC(=O)C=C | < 40 | –
5 | C=CC(=O)Nc1ccc(OC)c(OC(=O)C=C)c1 | > 40 | –
6 | C=CC(=O)NCc1ccccc1 | < 40 | –
7 | C=CC(=O)NCc1ccc(OC)cc1 | < 40 | –
8 | C=CC(=O)NC1CCCCC1 | < 40 | –
9 | C=CC(=O)NCc1ccc(F)cc1 | < 40 | –
10 | CCC(=O)NCc1cccc(C(F)(F)F)c1 | < 40 | Activity [2]: Active
11 | C=CC(=O)NCc1ccc(C(F)(F)F)cc1 | < 40 | –
12 | C=CC(=O)N[C@@H](C)c1ccccc1 | < 40 | –
13 | C=CC(=O)NCc1ccc(Cl)cc1F | < 40 | –
14 | C=CC(=O)Nc1ccc(OC)c(OC)c1 | < 40 | –
15 | C=CC(=O)NCc1ccccc1Cl | – | inhibition [3]: inactive; inhibition [4]: Active; Inhibition Is Weaker Than Chikv Nsp2Pro
16 | C=CC(=O)N1CCN(C(=O)OC(C)(C)C)CC1 | < 40 | –
17 | C=CC(=O)Nc1cccc(C)c1C | < 40 | –
18 | C=CC(=O)NCc1cccc(C(F)(F)F)c1 | > 40 | IC50 (Polyprotein P1234): 1.3 mM; Activity [5]: Active

Row | SMILES | inhibition [1] [%] | other results
19 | C=CC(=O)NCc1ccc(Br)cc1F | < 40 | –
20 | CCC(=O)Nc1ccc(Br)cc1 | < 40 | Activity [2]: Active
21 | C=CC(=O)NCCc1ccccc1 | < 40 | –
22 | C=CC(=O)Nc1ccc(Br)cc1 | > 40 | inhibition [3]: inactive; IC50 (Polyprotein P1234): 1.3 mM; Activity [5]: Active; Activity [6]: 17%; inhibition [4]: Active; Inhibition Is Weaker Than Chikv Nsp2Pro
23 | C=CC(=O)NCc1ccc(Cl)cc1 | < 40 | –
24 | C=CC(=O)Nc1ccc(OC)c(O)c1 | > 40 | –
25 | C=CC(=O)NCc1ccc2c(c1)OCO2 | < 40 | –
26 | C=CC(=O)Nc1ccc([N+](=O)[O-])cc1 | 100 | –
27 | C=CC(=O)Nc1ccc(OC)cc1[N+](=O)[O-] | > 40 | –
28 | C=CC(=O)NCCc1c[nH]c2ccccc12 | > 40 | –
29 | C=CC(=O)N(C)Cc1ccccc1 | < 40 | –
30 | C=CC(=O)N[C@H]1CCc2ccccc21 | < 40 | –
31 | C=CC(=O)Nc1ccc(I)cc1 | > 40 | –
32 | C=CC(=O)N(C(C)C)C1CCCCC1 | < 40 | –
33 | C=CC(=O)NCc1ccc(C(C)(C)C)cc1 | < 40 | –
34 | C=CC(=O)N[C@H](C)c1ccccc1 | < 40 | –
35 | C=CC(=O)Nc1c(CC(C)C)cccc1CC(C)C | < 40 | –
